Measurements reported in ChEMBL document CHEMBL5257080, “Optimization of physicochemical properties of pyrrolidine GPR40 AgoPAMs results in a differentiated profile with improved pharmacokinetics and reduced off-target activities” (Bioorg Med Chem, 2023).
≈ marks a conversion by molar mass, not a printed value. Calls of active or inactive are those of the source. No cut-off for these calls is given here.

Legend:
[1] = Toxicity in Sprague-Dawley rat assessed as effect on pancrease at 300 mg/kg, po measured for 1 months; format: organism-based; settings: in vivo, 730 h
Cytochrome P450 2C8 = biological target: T1, Cytochrome P450 2C8 (Homo sapiens, UniProt P10632); test: Inhibition of CYP2C8 in human liver microsomes; format: ADME, Microsome
T1 sequence (P10632 whole entry): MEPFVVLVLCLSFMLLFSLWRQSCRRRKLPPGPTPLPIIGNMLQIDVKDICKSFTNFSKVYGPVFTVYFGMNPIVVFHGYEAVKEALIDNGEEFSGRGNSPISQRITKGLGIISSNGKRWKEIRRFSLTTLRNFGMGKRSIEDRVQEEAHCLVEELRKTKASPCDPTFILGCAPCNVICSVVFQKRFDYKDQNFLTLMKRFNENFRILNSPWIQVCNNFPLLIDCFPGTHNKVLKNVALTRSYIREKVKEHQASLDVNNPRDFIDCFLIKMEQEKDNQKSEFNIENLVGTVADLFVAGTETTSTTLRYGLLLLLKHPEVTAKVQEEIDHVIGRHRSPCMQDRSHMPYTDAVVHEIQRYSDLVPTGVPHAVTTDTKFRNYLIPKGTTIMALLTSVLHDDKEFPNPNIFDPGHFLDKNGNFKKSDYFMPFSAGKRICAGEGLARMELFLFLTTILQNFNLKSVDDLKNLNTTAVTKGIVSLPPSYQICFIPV

Cytochrome P450 2C9 = Cytochrome P450 2C9 (Homo sapiens, UniProt P11712); test: Inhibition of CYP2C9 in human liver microsomes; format: ADME, Microsome
[2] = Toxicity in Sprague-Dawley rat assessed as effect on pancrease at AUC measured for 1 months; settings: in vivo, 730 h
Cytochrome P450 2D6 = Cytochrome P450 2D6 (Homo sapiens, UniProt P10635); test: Inhibition of CYP2D6 in human liver microsomes; format: ADME, Microsome
[3] = Tmax in rat at 400 mg/kg bid; format: ADME, organism-based; settings: in vivo
[4] = AUC (0 to 24 hrs) in rat at 160 mg/kg bid; format: ADME, organism-based; parameters: dose 160 mg/kg; settings: in vivo
[5] = AUC (0 to 24 hrs) in rat at 150 mg/kg, po bid; format: ADME, organism-based; parameters: dose 150 mg/kg, route po; settings: in vivo
Cytochrome P450 3A4 = Cytochrome P450 3A4 (Homo sapiens, UniProt P08684); test: Inhibition of CYP3A4 in human liver microsomes; format: ADME, Microsome
Cytochrome P450 2B6 = biological target: T2, Cytochrome P450 2B6 (Homo sapiens, UniProt P20813); test: Inhibition of CYP2B6 in human liver microsomes; format: ADME, Microsome
T2 sequence (P20813 whole entry): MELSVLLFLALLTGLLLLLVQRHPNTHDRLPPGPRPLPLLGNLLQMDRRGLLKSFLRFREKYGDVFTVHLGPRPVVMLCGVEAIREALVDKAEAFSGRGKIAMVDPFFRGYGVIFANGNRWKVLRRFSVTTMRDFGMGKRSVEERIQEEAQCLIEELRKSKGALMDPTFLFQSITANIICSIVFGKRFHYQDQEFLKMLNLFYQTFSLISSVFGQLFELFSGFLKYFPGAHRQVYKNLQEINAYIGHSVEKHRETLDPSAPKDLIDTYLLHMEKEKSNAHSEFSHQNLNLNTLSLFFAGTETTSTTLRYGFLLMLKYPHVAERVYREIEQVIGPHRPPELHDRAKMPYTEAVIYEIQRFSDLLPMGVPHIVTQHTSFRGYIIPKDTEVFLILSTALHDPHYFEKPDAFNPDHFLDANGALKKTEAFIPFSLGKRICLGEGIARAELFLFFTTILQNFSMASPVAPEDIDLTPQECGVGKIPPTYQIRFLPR

[6] = Cmax in rat at 160 mg/kg bid; format: ADME, organism-based; parameters: dose 160 mg/kg; settings: in vivo
[7] = Tmax in rat at 40 mg/kg bid; format: ADME, organism-based; settings: in vivo
[8] = Tmax in rat at 160 mg/kg bid; format: ADME, organism-based; settings: in vivo
[9] = Toxicity in cynomolgus monkey assessed as effect on pancrease at 30 mg/kg, po measured for 1 months; format: organism-based, Macaca fascicularis; settings: in vivo, 730 h
[10] = Solubility of the compound in FeSSIF at pH 5; format: ADME
[11] = Toxicity in Sprague-Dawley rat assessed as decrease in islet number at 300 mg/kg, po measured for 1 months; format: organism-based; settings: in vivo, 730 h
[12] = Toxicity in Sprague-Dawley rat assessed as decrease in islet size at 300 mg/kg, po measured for 1 months; format: organism-based; parameters: scale not given: the % may be the effect or the level left; settings: in vivo, 730 h
Rattus norvegicus [13] = test: Hyperglycemic activity in Sprague-Dawley rat assessed as effect on blood glucose level at 150 mg/kg, qd by glucometer; format: functional, organism-based
[14] = AUC (0 to 24 hrs) in rat at 40 mg/kg bid; format: ADME, organism-based; parameters: dose 40 mg/kg; settings: in vivo
[15] = Solubility in phosphate buffer at pH 6.5; format: physicochemical
[16] = biological target: Free fatty acid receptor 1 (Homo sapiens, UniProt O14842); test: Positive allosteric modulation of human GPR40 expressed in HEK293 cells assessed as cAMP accumulation; format: cell-based
[17] = Solubility of the compound in FaSSIF at pH 6.5; format: ADME
[18] = Cmax in rat at 400 mg/kg bid; format: ADME, organism-based; parameters: dose 400 mg/kg; settings: in vivo
[19] = Permeability of compound across apical to basolateral side in dog MDCK cells; format: ADME, cell-based, Canis lupus familiaris; settings: read-out: permeability
[20] = Cmax in rat at 40 mg/kg bid; format: ADME, organism-based; parameters: dose 40 mg/kg; settings: in vivo
[21] = Toxicity in Sprague-Dawley rat assessed as islet cell cytoplasmic alteration at 60 mg/kg, po measured for 1 months; format: organism-based; settings: in vivo, 730 h
[22] = AUC (0 to 24 hrs) in rat at 400 mg/kg bid; format: ADME, organism-based; parameters: dose 400 mg/kg; settings: in vivo
Cytochrome P450 2C19 = Cytochrome P450 2C19 (Homo sapiens, UniProt P33261); test: Inhibition of CYP2C19 in human liver microsomes; format: ADME, Microsome
Rattus norvegicus [23] = test: Anti-hyperglycemic activity against Sprague-Dawley rat assessed as reduction in plasma glucose AUC at 0.3 mg/kg, po measured for 20 to 120 mins by OGTT analysis; format: functional, organism-based; settings: time lower 20.0 min, time upper […]
[24] = Solubility of the compound in FeSSIF at pH 6.5; format: ADME
[25] = Toxicity in rat assessed as NOAEL by measuring AUC (0 to 24 hrs) measured for 28 days; settings: in vivo, time 28 day

Chain of Cytochrome P450 2C19 (P33261 whole entry): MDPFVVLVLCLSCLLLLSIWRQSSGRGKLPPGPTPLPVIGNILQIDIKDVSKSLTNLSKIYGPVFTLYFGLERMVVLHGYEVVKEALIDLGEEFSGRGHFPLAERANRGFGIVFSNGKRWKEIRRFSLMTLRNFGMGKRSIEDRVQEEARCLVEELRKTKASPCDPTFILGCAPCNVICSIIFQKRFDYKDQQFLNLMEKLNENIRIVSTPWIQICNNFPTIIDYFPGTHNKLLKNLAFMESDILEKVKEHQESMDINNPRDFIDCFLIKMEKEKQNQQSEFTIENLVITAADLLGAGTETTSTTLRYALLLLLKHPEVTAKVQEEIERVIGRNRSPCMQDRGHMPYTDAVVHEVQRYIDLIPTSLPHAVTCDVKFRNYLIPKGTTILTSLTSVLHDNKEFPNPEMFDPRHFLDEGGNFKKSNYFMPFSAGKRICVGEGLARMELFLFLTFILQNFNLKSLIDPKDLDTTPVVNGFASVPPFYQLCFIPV
Chain of Cytochrome P450 3A4 (P08684 whole entry): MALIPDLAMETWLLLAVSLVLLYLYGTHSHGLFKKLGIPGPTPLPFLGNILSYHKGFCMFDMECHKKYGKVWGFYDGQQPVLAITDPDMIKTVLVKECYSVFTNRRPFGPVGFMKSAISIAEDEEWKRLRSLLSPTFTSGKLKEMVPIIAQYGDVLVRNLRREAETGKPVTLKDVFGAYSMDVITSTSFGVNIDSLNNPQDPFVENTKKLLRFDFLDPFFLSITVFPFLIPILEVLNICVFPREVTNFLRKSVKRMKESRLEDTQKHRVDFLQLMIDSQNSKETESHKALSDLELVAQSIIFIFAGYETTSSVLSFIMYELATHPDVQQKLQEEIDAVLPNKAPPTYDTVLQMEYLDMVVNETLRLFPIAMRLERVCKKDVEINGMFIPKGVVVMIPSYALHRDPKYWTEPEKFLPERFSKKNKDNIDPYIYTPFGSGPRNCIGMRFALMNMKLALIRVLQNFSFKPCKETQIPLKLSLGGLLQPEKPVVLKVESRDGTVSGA
Chain of Cytochrome P450 2D6 (P10635 whole entry): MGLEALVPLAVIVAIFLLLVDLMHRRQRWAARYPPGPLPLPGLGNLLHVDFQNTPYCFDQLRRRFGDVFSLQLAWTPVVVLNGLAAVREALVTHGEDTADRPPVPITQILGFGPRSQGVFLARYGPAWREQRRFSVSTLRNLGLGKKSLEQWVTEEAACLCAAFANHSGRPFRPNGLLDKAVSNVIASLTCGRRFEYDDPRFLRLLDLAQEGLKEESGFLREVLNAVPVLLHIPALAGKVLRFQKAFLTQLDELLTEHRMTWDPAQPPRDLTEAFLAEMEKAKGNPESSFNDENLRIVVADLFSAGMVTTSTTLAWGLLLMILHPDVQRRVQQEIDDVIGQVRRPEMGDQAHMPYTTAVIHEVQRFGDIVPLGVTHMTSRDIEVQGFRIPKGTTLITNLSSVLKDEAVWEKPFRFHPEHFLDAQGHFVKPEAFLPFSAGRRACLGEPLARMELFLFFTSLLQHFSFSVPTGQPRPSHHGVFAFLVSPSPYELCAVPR
Chain of Free fatty acid receptor 1 (O14842 whole entry): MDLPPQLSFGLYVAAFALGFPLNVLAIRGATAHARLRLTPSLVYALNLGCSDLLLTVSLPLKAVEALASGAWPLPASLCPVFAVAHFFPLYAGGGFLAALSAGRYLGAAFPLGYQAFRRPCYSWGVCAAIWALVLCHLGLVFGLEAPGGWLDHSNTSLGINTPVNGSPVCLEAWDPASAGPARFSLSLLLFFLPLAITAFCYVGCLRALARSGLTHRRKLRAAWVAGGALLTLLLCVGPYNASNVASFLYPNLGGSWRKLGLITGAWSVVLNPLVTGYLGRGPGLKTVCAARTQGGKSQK
Chain of Cytochrome P450 2C9 (P11712 whole entry): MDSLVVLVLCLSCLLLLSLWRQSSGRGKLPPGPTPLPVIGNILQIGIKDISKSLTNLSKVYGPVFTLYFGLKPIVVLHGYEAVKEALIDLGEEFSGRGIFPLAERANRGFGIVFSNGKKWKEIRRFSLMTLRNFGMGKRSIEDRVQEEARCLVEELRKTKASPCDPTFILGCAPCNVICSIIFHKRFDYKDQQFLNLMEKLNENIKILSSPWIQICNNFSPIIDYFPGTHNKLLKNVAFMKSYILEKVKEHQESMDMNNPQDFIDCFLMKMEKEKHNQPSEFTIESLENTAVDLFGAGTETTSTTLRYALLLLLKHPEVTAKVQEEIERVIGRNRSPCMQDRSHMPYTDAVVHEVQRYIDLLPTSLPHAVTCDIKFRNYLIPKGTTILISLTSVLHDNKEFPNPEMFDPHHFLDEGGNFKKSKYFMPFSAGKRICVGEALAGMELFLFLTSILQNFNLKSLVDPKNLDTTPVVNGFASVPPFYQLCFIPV

- IC50 (Cytochrome P450 2C8): 1.7 µM
- IC50 (Cytochrome P450 2C9): 14 µM
- IC50 (Cytochrome P450 2D6): 40 µM
- Tmax [3]: 8 h
- AUC [4]: 1100 µM·h
- AUC [5]: 557 µM·h
- IC50 (Cytochrome P450 3A4): 3.4 µM
- IC50 (Cytochrome P450 2B6): 8.1 µM
- Cmax [6]: 106 µM
- Tmax [7]: 8 h
- Tmax [8]: 8 h
- solubility [10]: 8 µg/mL (≈ 14.8 µM)
- AUC [14]: 549 µM·h
- solubility [15]: 1 µg/mL (≈ 1.85 µM)
- EC50 [16]: 3.6 µM
- solubility [17]: 9 µg/mL (≈ 16.6 µM)
- Cmax [18]: 271 µM
- Papp A→B [19]: 14.2 ×10⁻⁶ cm/s
- Cmax [20]: 64 µM
- AUC [22]: 3370 µM·h
- IC50 (Cytochrome P450 2C19): 38 µM
- solubility [24]: 59 µg/mL (≈ 109 µM)
SMILES: COc1cc(N2CC[C@@H](Oc3ccc(N4N=C(C(F)(F)F)[C@@H](C)[C@@H]4CC(=O)O)cc3)[C@H](C)C2)c(Cl)cn1
- Activity [1]: Non-Toxic
- Activity [2]: Non-Toxic
- Activity [9]: Non-Toxic
- Activity [11]: Toxic
- Activity [12]: 50%
- Activity (Rattus norvegicus [13]): Active
- Activity [21]: Toxic
- Activity (Rattus norvegicus [23]): inactive
- AUC at […] [25]: 404 µM·h
